Measurements from the NIST ThermoML archive (doi:10.1016/j.tca.2019.178383).

Experiment: xn = mol fraction of the nth substance listed
Settings: for surface tension liquid-gas: Maximal bubble pressure; for mass density: 100 kPa, Liquid, Vibrating tube method

CCn1cc[n+](CCOC)c1.O=S(=O)([O-])C(F)(F)F + CCO
Settings	mass density [kg/m3]	surface tension liquid-gas [mN/m]
288.15 K, x1 = 0.0996	965.057	23.1
288.15 K, x1 = 0.1999	1071.98	24.2
288.15 K, x1 = 0.2996	1144.79	25.6
288.15 K, x1 = 0.3984	1196.95	27.1
288.15 K, x1 = 0.4991	1237.58	28.7
288.15 K, x1 = 0.6026	1270.25	30.5
288.15 K, x1 = 0.6991	1295.01	31.8
288.15 K, x1 = 0.797	1315.78	33.4
288.15 K, x1 = 0.8995	1333.85	34.9
288.15 K, x1 = 1	1348.94	36.3
293.15 K, x1 = 0.0996	960.722	22.6
293.15 K, x1 = 0.1999	1067.62	23.8
293.15 K, x1 = 0.2996	1140.44	25.2
293.15 K, x1 = 0.3984	1192.61	26.7
293.15 K, x1 = 0.4991	1233.26	28.3
293.15 K, x1 = 0.6026	1265.94	30.1
293.15 K, x1 = 0.6991	1290.72	31.4
293.15 K, x1 = 0.797	1311.49	33.1
293.15 K, x1 = 0.8995	1329.57	34.7
293.15 K, x1 = 1	1344.66	36.1
298.15 K, x1 = 0.0996	956.38	22.1
298.15 K, x1 = 0.1999	1063.27	23.3
298.15 K, x1 = 0.2996	1136.09	24.8
298.15 K, x1 = 0.3984	1188.29	26.3
298.15 K, x1 = 0.4991	1228.95	27.9
298.15 K, x1 = 0.6026	1261.65	29.7
298.15 K, x1 = 0.6991	1286.44	31.1
298.15 K, x1 = 0.797	1307.22	32.8
298.15 K, x1 = 0.8995	1325.31	34.4
298.15 K, x1 = 1	1340.41	35.8
303.15 K, x1 = 0.0996	952.028	21.6
303.15 K, x1 = 0.1999	1058.92	22.8
303.15 K, x1 = 0.2996	1131.76	24.4
303.15 K, x1 = 0.3984	1183.97	25.8
303.15 K, x1 = 0.4991	1224.66	27.5
303.15 K, x1 = 0.6026	1257.38	29.3
303.15 K, x1 = 0.6991	1282.19	30.7
303.15 K, x1 = 0.797	1302.98	32.5
303.15 K, x1 = 0.8995	1321.08	34.1
303.15 K, x1 = 1	1336.17	35.5
308.15 K, x1 = 0.0996	947.665	21.2
308.15 K, x1 = 0.1999	1054.56	22.3
308.15 K, x1 = 0.2996	1127.43	23.9
308.15 K, x1 = 0.3984	1179.66	25.4
308.15 K, x1 = 0.4991	1220.38	27.1
308.15 K, x1 = 0.6026	1253.12	28.9
308.15 K, x1 = 0.6991	1277.95	30.3
308.15 K, x1 = 0.797	1298.75	32
308.15 K, x1 = 0.8995	1316.86	33.8
308.15 K, x1 = 1	1331.96	35.3
313.15 K, x1 = 0.0996	943.285	20.8
313.15 K, x1 = 0.1999	1050.2	21.8
313.15 K, x1 = 0.2996	1123.1	23.5
313.15 K, x1 = 0.3984	1175.37	25
313.15 K, x1 = 0.4991	1216.11	26.7
313.15 K, x1 = 0.6026	1248.89	28.6
313.15 K, x1 = 0.6991	1273.73	30
313.15 K, x1 = 0.797	1294.54	31.8
313.15 K, x1 = 0.8995	1312.66	33.5
313.15 K, x1 = 1	1327.77	35.1
318.15 K, x1 = 0.0996	938.889	20.3
318.15 K, x1 = 0.1999	1045.85	21.4
318.15 K, x1 = 0.2996	1118.78	23
318.15 K, x1 = 0.3984	1171.08	24.6
318.15 K, x1 = 0.4991	1211.87	26.3
318.15 K, x1 = 0.6026	1244.66	28.2
318.15 K, x1 = 0.6991	1269.52	29.6
318.15 K, x1 = 0.797	1290.35	31.5
318.15 K, x1 = 0.8995	1308.47	33.2
318.15 K, x1 = 1	1323.6	34.9
